Results taken from patent US20090047365A1, “Novel Concomitant Use of Sulfonamide Compound with Anti-Cancer Agent” (Eisai R & D Management Co., Ltd., priority 2005, published 2009).

Columns and labels:
[1] = tested on: HCT116 cells; test: DNA microarray analysis (Example 8), correlation coefficients and hierarchical cluster analysis; format: cell-based, human; conditions: 24 hours treatment at twice the 50% growth inhibitory concentration, similarity among the compounds named together
Description: HCT116 cells were cultured in an RPMI-1640 medium supplemented with 10% fetal bovine serum, 100 units/ml penicillin and 100 μg/ml streptomycin. The following cultivation and compound treatment were carried out in an incubator at 5% CO2 and 37° C. HCT116 cells were seeded in 10 cm-diameter cell culture dishes at 2.0×10^6 cells/dish, cultured for 24 hours and subjected to the following compound treatment.
In this example, changes in the gene expression of HCT116 cells upon treatments with 12 compounds, i.e., E7820 (0.16 μM), E7070 (0.26 μM), LY186641 (59 μM), LY295501 (24 μM), LY-573636 (9.6 μM), CQS (4.0 μM), MST16 (100 μM), etoposide (3.6 μM), ethoxzolamide (410 μM), capsaicin (280 μM), trichostatin A (0.16 μM) and kenpaullone (7.1 μM) were examined.
The concentration of each compound used for the treatment was set to twice the 50% growth inhibitory concentration of each compound to the HCT116 cells (based on three days of antiproliferatrive activity using MTT). The cells were collected 24 hours after the treatment at the concentration indicated in parentheses following each compound name above. Similarly, cells cultured for 24 hours without the addition of any compound were also collected.
Total RNA extraction from the collected cells was performed using TRIZOL reagent (Invitrogen) according to the attached instruction.
Gene expression analysis using a DNA microarray was carried out in the same manner as “(2) Analysis of gene expression using DNA microarray” in Example 7.
This example was conducted for each sample in duplicate (for the convenience of the experiment, samples were given branch numbers like control-1, control-2, E7070-1, E7070-2 and so on for distinction). Then, GeneChip (Affymetrix) system (Human Focus array) was used for analyzing changes in the gene expression induced by each compound.
Twenty-six “.cel” files obtained in this example (13 samples (a control+12 compounds)×2) were subjected to RMA method (robust multi-array average method (Biostatistics (2003), 4, 249-264)) for normal distribution at probe level, and then the logarithm value of the signal intensity at gene level was calculated. Next, the logarithm value of the signal intensity of the untreated group (control-1) was subtracted from the logarithm value of the signal intensity of the compound-treated group for each gene to obtain the logarithm value of the signal ratio of the compound-treated group to control-1. Then, cosine correlation coefficients were calculated as correlation coefficients between the experiments (FIG. 5). Based on these correlation coefficients, hierarchical cluster analysis was performed according to UPGMA method (Unweighted Pair Group Method with Arithmetic mean method) (FIG. 6). Control-2 was also subjected to similar calculation (FIGS. 7 and 8). The softwares used were R 2.0.1 (http://www.r-project.org/) and affy package 1.5.8 (http://www.bioconductor.org).

[2] = tested on: HCT116-C9; test: cell growth inhibition assay (MTT), parent line of E7070-resistant lines; format: cell-based, human; conditions: HCT116-C9, 72 hours, Example 11, read-out: antiproliferative activity IC50
Description: An E7070-resistant cell line was used to assess the antiproliferative activities of E7820, LY186641, LY295501, LY-ASAP and CQS. HCT116-C9 was a substrain separated from human colon cancer-derived HCT116 (American Type Culture Collection, Manassas, Va., U.S.A.). This HCT116-C9 was cultured in the presence of E7070 while incrementally increasing the E7070 concentration, thereby obtaining E7070-resistant substrains HCT116-C9-C1 and HCT116-C9-C4 (Molecular Cancer Therapeutics, 2002, 1, 275-286).
Three cell lines, i.e., HCT116-C9, HCT116-C9-C1 and HCT116-C9-C4, were each seeded at 3000 cells/well onto a 96-well microplate (flat bottom) (50 μl/well). Twenty-four hours later, they were added with a 3-fold dilution series of each compound (50 μl/well). Seventy-two hours later, the antiproliferative activities were assessed by MTT method (Mossmann T., J. Immunol. Methods, 1983, 65, 55-63). The 50% growth inhibitory concentrations to the cancer cells were obtained by a least square method.
In exactly the same manner as in Example 10, an E7070-resistant cell line was used to assess the antiproliferative activities of LY573636 as well as those of E7070.

[3] = tested on: human colon cancer cell line Colo320DM; test: subcutaneous transplant model of human colon cancer cell line (Colo320DM), E7820 and Oxaliplatin; format: in vivo; conditions: Colo320DM nude mouse; E7820 50 mg/kg twice a day, two weeks, oral; Oxaliplatin 10 mg/kg once in four days x3, intravenous; control 11.99 ± 1.35
[4] = tested on: DNA-topoisomerase II mRNA; test: quantification of DNA-topoisomerase II mRNA by RT-PCR; format: cell-based, human; conditions: HUVEC, 1 μM, six hours; untreated group 4.4 μg/ml
Description: 2×10^6 of human umbilical vein endothelial cells were seeded in a 25 cm^2 cell culture bottle and cultured in a CO2 incubator at 37° C. using a EGM-2 medium (Sanko Junyaku) overnight. On the following day, E7820 was added to give 1 μM. Six hours later, RNA was prepared from the cells. Specifically, the medium was removed from the cells. The cells were added with and dissolved in 3 ml of ISOGEN (Wako Pure Chemical Industries), added with an equal volume of CHCl3 and agitated. Then, the water phase was extracted. Half the amount of the water phase of isopropanol was added, left to stand for 5 minutes and centrifuged to collect the precipitate. The precipitate was washed with 70% ethanol, added with and dissolved in sterile water and absorbance at 260 nm was determined with a spectrophotometer to quantify the RNA amount.
Subsequently, TaqMan Gold RT-PCR kit (Applied Biosystems) was used to perform RT-PCR reaction. Specifically, 0.1 μg of RNA was added to 50 μl of the reaction solution, and subjected to reactions at 25° C. for 10 minutes, 48° C. for 30 minutes and 95° C. for 5 minutes to prepare cDNA. Then, a primer for determining DNA-topoisomerase II mRNA (ABI Taqman probe Hs00172214 ml) was used for PCR reaction and then ABI7700 (Applied Biosystems) was used for quantifying RNA amount.

[5] = tested on: human colon cancer cell line Colo320DM; test: subcutaneous transplant model of human colon cancer cell line (Colo320DM), E7820 and CPT-11; conditions: Colo320DM nude mouse; E7820 50 mg/kg twice a day, two weeks, oral; CPT-11 100 mg/kg once in four days x3, intravenous; control 11.99 ± 1.35
Description: Human colon cancer cell line Colo320DM (purchased from Dainippon Pharmaceutical) was cultured in RPMI1640 (containing 10% FBS) in a 5% carbon dioxide incubator at 37° C. to about 80% confluence, and the cells were collected with trypsin-EDTA. Using a phosphate buffer containing 50% matrigel, 7.5×10^7 cells/mL suspension was prepared, and 0.1 mL each of the resulting cell suspension was subcutaneously transplanted to a nude mouse at the side of its body. […] The major and minor axes of tumors were measured with Digimatic caliper (Mitsutoyo), and tumor volumes and relative tumor volumes were calculated according to the following formulae.
Tumor Volume TV=Major axis of tumor(mm)×(minor axis of tumor)^2(mm^2)/2
(§1) Relative Tumor Volume RTV=Tumor volume on measurement day/Tumor volume on the first administration day

[6] = tested on: human pancreas cancer cell line KP-1; test: subcutaneous transplant model of human pancreas cancer cell line (KP-1), E7820 and Gemcitabine; conditions: KP-1 nude mouse; E7820 50 mg/kg twice a day, three weeks, oral; Gemcitabine 200 mg/kg once in three days x4, intravenous; control 14.8 ± 2.28
Description: Human pancreas cancer cell line KP-1 (obtained from the National Kyushu Cancer Center) was cultured in RPMI1640 (containing 10% FBS) in a 5% carbon dioxide incubator at 37° C. to about 80% confluence, and the cells were collected with trypsin-EDTA. Using a phosphate buffer, 1×10^8 cells/mL suspension was prepared, and 0.11 mL each of the resulting cell suspension was subcutaneously transplanted to a nude mouse at the side of its body. […] The major and minor axes of tumors were measured with Digimatic caliper (Mitsutoyo), and tumor volumes and relative tumor volumes were calculated according to the following formulae.
Tumor Volume TV=Major axis of tumor(mm)×(Minor axis of tumor)^2(mm^2)/2
as §1

NS(=O)(=O)c1ccc(S(=O)(=O)Nc2cccc3c(Cl)c[nH]c23)cc1 [E7070, N-(3-chloro-1H-indole-7-yl)-4-sulfamoylbenzenesulfonamide]
changes in gene expression (correlation coefficients, hierarchical cluster analysis) [1]: very similar genetic alterations | IC50 [2]: 127 nM

Cc1ccc(NS(=O)(=O)c2cccc(C#N)c2)c2[nH]cc(C#N)c12 [E7820, N-(3-cyano-4-methyl-1H-indole-7-yl)-3-cyanobenzenesulfonamide]
Relative tumor volume on Day 15 Average ± standard deviation [3]: 7.05 ± 1.15 | amount of DNA-topoisomerase II mRNA [4]: 1.6 µg/mL | changes in gene expression (correlation coefficients, hierarchical cluster analysis) [1]: very similar genetic alterations | Relative tumor volume on Day 15 Average ± standard deviation [5]: 7.05 ± 1.15 | Relative tumor volume on Day 22 Average ± standard deviation [6]: 8.81 ± 2.57
